Measurements taken from patent US20100063006A1, “COMPOSITIONS AND METHODS TO REDUCE FAT AND RETRACT SKIN” (American Network of Lipolysis, LLC, priority 2006, published 2010).
Where a name gives a salt, the structure may show the parent alone.

Tests used:
[1] = tested on: cultured human adipocytes; assay: In vitro lipolysis assays (basal lipolysis rate, triglyceride detection) in cultured human adipocytes; format: cell-based; details: adipocytes incubated 12-14 hours in test composition; FIG. 8
Experimental: Lipolysis induced in cultured human adipocytes by certain embodiments of the inventive injectable compositions for fat reduction and their constituent components was assayed in vitro under controlled conditions.
Cells utilized for the in vitro assays were obtained from five different dermolipectomy specimens. Preadipocytes were cultured in differentiation media over 14 days to produce adipocytes incubated between 12-14 hours in each of 12 test solutions. Each of the cell lines incubated in each of the 12 test solutions were split and introduced into four in vitro assays.
Cell lines were incubated in each of the following compositions: • 1. Phosphatidylcholine 25.6 milligrams per milliliter (mg/mL)/Deoxycholate 24.8 mg/mL, Benzyl Alcohol 25.6 mg/mL, ISUPREL 8 mg/mL, and Ropivacaine 5 mg/mL. • 2. Phosphatidylcholine 24.0 mg/mL/Deoxycholate 19.8 mg/mL, Benzyl Alcohol 25.6 mg/mL, ISUPREL 8 mg/mL, and Ropivacaine 5 mg/mL. • 3. Phosphatidylcholine 50.0 mg/mL/Deoxycholate 42.0 mg/mL. • 4. Deoxycholate 10.0 mg/mL. • 5. Phosphatidylcholine 45.0 mg/mL/Deoxycholate 42.0 mg/mL. • 6. Phosphatidylcholine 53.0 mg/mL/Deoxycholate 42.0 mg/mL. • 7. Phosphatidylcholine 50 mg/mL in mineral oil. • 8. Deoxycholate 24.8 mg/mL. • 9. Benzyl alcohol 25.6 mg/mL. • 10. ISUPREL 8.0 mg/mL. • 11. Ropivacaine 5.0 mg/mL. • 12. Vitamin B complex and pentoxyffline • 13. Control--Saline Solution. […]
B. Basal Lipolysis Rate. Free lipid in collected supernatant was quantified using a Lipolyis assay available from Zan-Bio, Catalog No. LIP-1 to measure released glycerol. […] The quinoneimine dye has an absorbance maximum at 540 nanometers. The increase in absorbance at 540 nanometers is directly proportionate to glycerol concentration in the supernatant.
D. Triglyceride Detection. The amount of triglyceride was quantified by measurement of glycerol released by cell lysis into the supernatant utilizing a triglyceride assay kit available from Zen-Bio, Catalog No. TG-1-NC. There is a molar equivalent of triglyceride for each mole of glycerol detected.

[2] = nausea, vomiting, diarrhea, flushing, sweating, bradycardia; cited from earlier work

Row | Compound | lipolytic action (free lipids) compared with the saline control [1] | total administered amount of PC above which cholinergic side effects occur [2]
1 | OCc1ccccc1 [Test composition no. 9, Benzyl alcohol] | do not appear to have lipolytic action greater than the control | 
2 | CC(C)NCC(O)c1ccc(O)c(O)c1 (stereo not shown) [Test composition no. 10, isoproterenol hydrochloride] | do not appear to have lipolytic action greater than the control | 
3 | CCCN1CCCC[C@H]1C(=O)Nc1c(C)cccc1C [Test composition no. 11, Ropivacaine] | do not appear to have lipolytic action greater than the control | 
4 | phosphatidylcholine [PC] |  | exceeds 2000 mg per treatment
